Test results from ChEMBL document CHEMBL1137896, “Synthesis and AMPA receptor antagonistic activity of a novel 7-imidazolyl-6-trifluoromethyl quinoxalinecarboxylic acid with a substituted phenyl group and improved its good physicochemical properties by introduced CF3 group” (Bioorg Med Chem Lett, 2004).
Values after ≈ are worked out from the molar mass of the structure shown.

Columns and labels:
[1] = system: Rattus norvegicus; assay: In vivo protective effect in focal ischemia rat model was determined after intravenous dosage at 2.5 mg/kg/h for 4 hr; assay type: functional
[2] = Solubility at pH 7.4; assay type: physicochemical; conditions: buffer
[3] = target: Glutamate receptor ionotropic, AMPA (Rattus norvegicus, UniProt P19490+P19491+P19492+P19493); assay: Displacement of [3H]AMPA (5 nM) from ionotropic glutamate receptor AMPA of rat cerebral cortex synaptic membrane preparation; assay type: tissue-based
[4] = system: Rattus norvegicus; assay: In vivo protective effect in focal ischemia rat model was determined after intravenous dosage at 15 mg/kg/h for 4 hr; assay type: functional
[5] = system: Rattus norvegicus; assay: In vivo protective effect in focal ischemia rat model was determined after intravenous dosage at 30 mg/kg/h for 4 hr; assay type: functional

SMILES	Ki [3] [nM]	further results
O=C(Nc1ccc(C(=O)O)cc1)OCc1cn(-c2cc3nc(C(=O)O)c(O)nc3cc2[N+](=O)[O-])cn1		Protection [1]: 3; solubility [2]: 4860 µg/mL (≈ 9.83 mM)
O=C(O)c1nc2cc(-n3ccnc3)c(C(F)(F)F)cc2nc1O	86	
O=C(Nc1ccc(C(F)(F)F)cc1)OCc1cn(-c2cc3nc(C(=O)O)c(O)nc3cc2C(F)(F)F)cn1	29	
O=C(Nc1cc(Cl)cc(Cl)c1)OCc1cn(-c2cc3nc(C(=O)O)c(O)nc3cc2C(F)(F)F)cn1	13	
O=C(Nc1cccc(Br)c1)OCc1cn(-c2cc3nc(C(=O)O)c(O)nc3cc2C(F)(F)F)cn1	5.2	
O=C(Nc1cccc(C(=O)O)c1)OCc1cn(-c2cc3nc(C(=O)O)c(=O)[nH]c3cc2C(F)(F)F)cn1	35	
O=c1[nH]c2cc(-n3ccnc3)c([N+](=O)[O-])cc2[nH]c1=O [YM-90K]		solubility [2]: 1000 µg/mL (≈ 3.66 mM); Protection [4]: 2.8
O=C(O)Cn1c(=O)c(=O)[nH]c2cc([N+](=O)[O-])c(-n3ccnc3)cc21 [ZONAMPANEL]		solubility [2]: > 5000 µg/mL; Protection [5]: 0.5

Continued, in another order:

Ki [3] [nM]	SMILES	further results
20	Cc1ccc(NC(=O)OCc2cn(-c3cc4nc(C(=O)O)c(O)nc4cc3C(F)(F)F)cn2)cc1	
20	O=C(Nc1ccc(Br)cc1)OCc1cn(-c2cc3nc(C(=O)O)c(O)nc3cc2C(F)(F)F)cn1	
30	COc1ccc(NC(=O)OCc2cn(-c3cc4nc(C(=O)O)c(O)nc4cc3C(F)(F)F)cn2)cc1	
16	O=C(Nc1ccc(C(=O)O)cc1)OCc1cn(-c2cc3nc(C(=O)O)c(O)nc3cc2C(F)(F)F)cn1	Protection [1]: 2.7; solubility [2]: 8290 µg/mL (≈ 16 mM)
23	O=C(Nc1ccccc1)OCc1cn(-c2cc3nc(C(=O)O)c(O)nc3cc2C(F)(F)F)cn1	
190	O=C(NCc1ccccc1)OCc1cn(-c2cc3nc(C(=O)O)c(O)nc3cc2C(F)(F)F)cn1	
